Reference: publication PMC9633101 (Science signaling, 2022)

These molecules were tested against T1, TRPL (TRPL::EGFP) (Drosophila melanogaster, UniProt P48994) (assay: Fura-2 Ca2+ imaging, S2 cells).
T1 sequence (P48994 1-1124): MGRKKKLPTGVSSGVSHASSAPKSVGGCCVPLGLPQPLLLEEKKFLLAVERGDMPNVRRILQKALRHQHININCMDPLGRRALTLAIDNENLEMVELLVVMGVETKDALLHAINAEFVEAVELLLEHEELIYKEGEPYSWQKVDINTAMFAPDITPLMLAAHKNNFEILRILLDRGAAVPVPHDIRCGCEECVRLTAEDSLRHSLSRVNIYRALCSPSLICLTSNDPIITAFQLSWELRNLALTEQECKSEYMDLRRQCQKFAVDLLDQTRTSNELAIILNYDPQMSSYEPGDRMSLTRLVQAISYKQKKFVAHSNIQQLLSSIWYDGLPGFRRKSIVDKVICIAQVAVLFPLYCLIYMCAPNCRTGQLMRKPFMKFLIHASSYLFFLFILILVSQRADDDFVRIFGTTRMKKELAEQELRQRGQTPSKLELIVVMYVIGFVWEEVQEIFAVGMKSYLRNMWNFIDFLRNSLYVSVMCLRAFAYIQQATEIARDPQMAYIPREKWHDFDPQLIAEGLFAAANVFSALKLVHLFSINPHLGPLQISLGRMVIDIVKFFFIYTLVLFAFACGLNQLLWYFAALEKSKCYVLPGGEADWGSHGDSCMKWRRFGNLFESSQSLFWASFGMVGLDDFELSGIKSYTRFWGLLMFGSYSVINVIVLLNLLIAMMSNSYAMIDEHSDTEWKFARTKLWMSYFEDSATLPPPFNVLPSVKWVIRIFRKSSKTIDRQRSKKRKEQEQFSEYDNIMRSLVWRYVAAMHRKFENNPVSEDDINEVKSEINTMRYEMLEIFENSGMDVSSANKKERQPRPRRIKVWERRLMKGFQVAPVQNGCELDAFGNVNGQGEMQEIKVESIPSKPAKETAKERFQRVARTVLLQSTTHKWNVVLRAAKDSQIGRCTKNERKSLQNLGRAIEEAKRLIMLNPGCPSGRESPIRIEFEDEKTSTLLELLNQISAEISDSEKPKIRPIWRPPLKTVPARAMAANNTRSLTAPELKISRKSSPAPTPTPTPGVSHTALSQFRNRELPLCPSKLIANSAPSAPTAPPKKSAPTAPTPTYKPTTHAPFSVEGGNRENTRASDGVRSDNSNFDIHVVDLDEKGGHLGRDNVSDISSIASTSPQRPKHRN
Format: cell-based
Work on `CCCCC/C=C\C/C=C\CCCCCCCC(=O)OC(CO)CO` [2-LG, 2-linoleoyl glycerol] yielded an EC50 of 5.23 µM.
`CCCCC/C=C\C/C=C\CCCCCCCC(=O)NCCO` [LEA, linoleoyl ethanolamide] gave an EC50 of 7.04 µM.
Work on `CCCCC/C=C\C/C=C\CCCCCCCC(=O)NCC(=O)O` [LinGly, linoleoyl glycine] yielded an EC50 of 2.99 µM.
